Like-named read-outs stand apart in the source and are kept apart here. A value given as a limit tells only on which side of the number the result lay.

This is an account of results in patent US12152038B2, “Vasopressin receptor antagonists and products and methods related thereto” (Neumora Therapeutics, Inc., priority 2017, dated 2024).

The target of one data set is T1, MDR1 (P-glycoprotein) (Homo sapiens, UniProt P08183).
T1 construct: host or cells: MDCK (MDR1-MDCK; wild-type MDCK as comparator)
T1 sequence (P08183 whole entry): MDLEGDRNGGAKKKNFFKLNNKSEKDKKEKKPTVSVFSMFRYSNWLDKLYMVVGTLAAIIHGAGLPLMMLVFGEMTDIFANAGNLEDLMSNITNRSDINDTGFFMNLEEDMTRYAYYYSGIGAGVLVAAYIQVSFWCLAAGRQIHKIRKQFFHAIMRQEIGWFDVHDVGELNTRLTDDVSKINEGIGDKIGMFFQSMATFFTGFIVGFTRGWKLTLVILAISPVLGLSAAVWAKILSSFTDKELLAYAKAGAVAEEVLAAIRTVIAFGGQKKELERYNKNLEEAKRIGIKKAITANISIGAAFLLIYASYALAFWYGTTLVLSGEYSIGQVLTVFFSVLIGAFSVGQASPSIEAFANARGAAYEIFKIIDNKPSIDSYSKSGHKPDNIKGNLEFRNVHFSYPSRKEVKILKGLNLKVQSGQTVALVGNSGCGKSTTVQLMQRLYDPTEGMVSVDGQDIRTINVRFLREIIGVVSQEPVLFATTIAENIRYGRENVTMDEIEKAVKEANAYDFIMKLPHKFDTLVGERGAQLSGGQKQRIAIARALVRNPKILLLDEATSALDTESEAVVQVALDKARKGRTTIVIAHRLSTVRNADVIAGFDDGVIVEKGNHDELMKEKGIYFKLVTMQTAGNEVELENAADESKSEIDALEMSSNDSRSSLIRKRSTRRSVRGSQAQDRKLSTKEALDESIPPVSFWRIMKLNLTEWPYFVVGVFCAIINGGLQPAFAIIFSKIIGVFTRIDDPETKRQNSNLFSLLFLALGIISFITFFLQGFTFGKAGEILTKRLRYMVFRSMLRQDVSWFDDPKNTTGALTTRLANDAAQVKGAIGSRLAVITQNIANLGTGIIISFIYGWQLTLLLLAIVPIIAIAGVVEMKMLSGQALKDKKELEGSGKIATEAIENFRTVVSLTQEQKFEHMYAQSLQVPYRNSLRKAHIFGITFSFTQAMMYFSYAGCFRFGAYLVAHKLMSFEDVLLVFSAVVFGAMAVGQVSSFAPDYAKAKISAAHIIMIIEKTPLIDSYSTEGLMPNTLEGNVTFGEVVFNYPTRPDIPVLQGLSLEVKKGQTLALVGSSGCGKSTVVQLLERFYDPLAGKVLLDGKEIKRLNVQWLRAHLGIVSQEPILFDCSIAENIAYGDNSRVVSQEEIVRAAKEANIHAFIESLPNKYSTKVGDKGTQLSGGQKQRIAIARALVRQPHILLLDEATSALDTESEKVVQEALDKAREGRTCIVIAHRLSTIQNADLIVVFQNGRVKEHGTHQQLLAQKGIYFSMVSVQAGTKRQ
Kind of data set: MDR1-MDCK permeability and efflux assay (Papp, efflux ratio, effective efflux ratio). The format is in vitro ADME. Particulars: for Papp AB MDR1 / Papp A→B at 1 h, 10 μM: A->B; for EER (Effective Efflux Ratio): ER(MDR1-MDCK)/ER(wild-type MDCK); for ER MDR1 (Efflux Ratio): Papp B>A/Papp A>B; for efflux ratio at 1 h, 10 μM / Papp A→B at 1 h, 10 μM: dog; for Papp A→B at 1 h, 10 μM: pH 7.4, read-out: Papp AB MDR1. As to the method: The MDR1-MDCK effective efflux assay was performed as described in the BioFocus Standard Operating Procedure, ADME-SOP-56. Both wild-type (WT) and MDR1-MDCK cells (Solvo Biotechnology) were seeded onto 24-well Transwell plates at 2.35×10^5 cells per well and used in confluent monolayers after a 3 day culture at 37° C. under 5% CO2. For both cell types, test and control compounds (propranolol, vinblastine) were added (10 μM, 0.1% DMSO final, n=2) to donor compartments of the Transwell plate assembly in assay buffer (Hanks balanced salt solution supplemented with 25 mM HEPES, adjusted to pH 7.4) for both apical to basolateral (A>B) and basolateral to apical (B>A) measurements. Incubations were performed at 37° C., with samples removed from both donor and acceptor chambers at T=0 and 1 hour and compound analysed by mass spectrometry (LC-MS/MS) including an analytical internal standard.
Apparent permeability (Papp) values were determined from the relationship: Papp=[CompoundAcceptor T=end]×V Acceptor/([Compound Donor T=0]×V Donor)/incubation time×V Donor/Area×60×10^−6 cm/s
In this equation, V is the volume of each Transwell compartment (apical 125 μL, basolateral 600 μL), and concentrations are the relative MS responses for compound (normalized to internal standard) in the donor chamber before incubation and acceptor chamber at the end of the incubation, and Area is the area of cells exposed for drug transfer (0.33 cm^2).
Efflux ratios (Papp B>A/Papp A>B) were calculated for each compound from the mean Papp values in each direction for both wild-type and MDR1-MDCK cells.
In order to confirm the involvement of MDR1 in any efflux seen, an “effective efflux ratio” (EER) was calculated by comparing compound efflux ratios (ER) in the two cell types by the following equation: EER=ER(MDR1-MDCK)/ER(wild-type MDCK)
This ratio illustrates the effect of the over-expressed MDR1 normalised for the background movement of compound through the wild-type cells.
Lucifer Yellow (LY) was added to the apical buffer in all wells to assess viability of the cell layer. […] Recoveries<50% indicates compound solubility, stability or binding issues, thereby reducing the reliability of a result.
The inherent ability of a potential drug molecule to penetrate the blood brain barrier and avoid efflux by transporters expressed in the brain, can be roughly correlated with the Papp(A-B) and the efflux ratio (as defined above), respectively. A potential drug molecule with an apparent permeability<7 (10^−6 cm/sec) has low permeability (+), >7 (10^−6 cm/sec) but <10 (10^−6 cm/sec) has moderate permeability (++), >10 (10^−6 cm/sec) but <20 (10^−6 cm/sec) has good permeability (+++), and >20 (10^−6 cm/sec) is highly permeable (++++). High permeability in the WT and MDCK II cell permeability assay increases the probability of blood brain barrier penetration and access to the CNS. A potential drug molecule in the above assay system with an efflux ratio or effective efflux ratio of <1 has low probability of being an efflux substrate (++++), >1 but <2 has moderate probability of being an efflux substrate (+++), >2 but <3 has has an increased probability of being an efflux substrate (++), and >3 has a high probability of being an efflux substrate (+). If a potential drug molecule is an efflux substrate, the molecule will have a low probability of reaching exposures in the brain (site of action) that will result in efficacious levels of receptor occupancy.

Data set [1] relates to wild-type (WT) MDCK cells. Kind of data set: Wild-type MDCK permeability and efflux assay (Papp, efflux ratio). Particulars: for Papp AB WT: A->B; for ER WT (Efflux Ratio): Papp B>A/Papp A>B. The data set is classed as in vitro ADME. A digest of the protocol: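 Confluent WT or MDR1-MDCK monolayers (3-day culture) dosed with 10 μM compound, 0.1% DMSO, in HBSS/25 mM HEPES pH 7.4, A>B and B>A, 1 h at 37 °C; LC-MS/MS quantitation. Papp from acceptor/donor ratio; efflux ratio = Papp B>A/A>B; EER = ER(MDR1)/ER(WT).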

A further data set has as its system Male CD-1 mice. Kind of data set: AVP induced scratching, digging and grooming behavior in mouse. The data set is classed as in vivo. The following applies: po, AVP i.c.v., 15 minutes observation. The source says:
Administration of Arginine-Vasopressin (AVP) intracerebroventricularly (i.c.v.) elicits characteristic scratching, digging and grooming behavior in mice that can be measured readily and is sensitive to blockade with vasopressin antagonists (Meisenberg, Ann N Y Acad Sci. 525:257-69, 1988; Bleickardt et. al., Psychopharmacology (Berl). 202(4):711-8, 2009).
Male CD-1 mice (Charles River Germany) weighing 22-25 g upon the study in-life were used for this study. Animals were housed in groups of 4-5 per cage in standard temperature (22±1° C.) and light-controlled environment (lights on from 7 am to 8 pm), with ad libitum access to food and water. Prior to commencing any procedures to the mice, they were allowed to habituate in the vivarium for a minimum of 7 days. Anesthesia was induced in a plexiglass chamber for 2-3 min with 5% isoflurane and maintained through a snout mask with 1-2% isoflurane thereafter. A homeothermic blanket system with a rectal probe was used to monitor and maintain the animal's body temperature at 37.0° C.±1.5° C. during the operation. Anesthetized mice were placed in a stereotaxic apparatus and skin between the ears shaved and disinfected with povidone-iodine solution (Betadine). A 10-μl Hamilton syringe with 28-gauge needle was used for the i.c.v. injections. All animals receive identical AVP injections (3.689 μM) or sterile saline (0.9% sodium chloride solution) into the right lateral ventricle at the following coordinates: AP=+0.5 mm; ML=+1.0 mm; DV=−2.5 mm (approximately from bregma). The actual coordinates were calculated by the distance from the point in midline between the eyes and no skin incision was made. […]
Mice were observed and video-recorded for 15 minutes following AVP/saline administration and behaviors were measured (in seconds) and a cumulative time was calculated. […] Using this assay, balovaptan (100 and 300 mg/kg, po), JNJ-17308616 (30, 100 mg/kg, po) and Compound No. 1-83B (100, 300, 500 mg/kg, po) were evaluated for antagonist activity to AVP-induced scratching behaviors.

Setting [2] is: MDCK-MDR1, pH 7.4, ER(MDR1-MDCK)/ER(wild-type MDCK), read-out: EER (Effective Efflux Ratio).
Setting [3] is: MDCK-MDR1, pH 7.4, Papp B>A/Papp A>B, MDR1-MDCK cells, read-out: ER MDR1 (Efflux Ratio).

Regarding `CC1COc2cc(F)ccc2N1C(=O)N1CC2(C1)CN(c1ccc(F)cn1)C2` (single isomer, unassigned) [12-1-B], at MDR1 (P-glycoprotein) (MDR1-MDCK cells), the “Papp AB MDR1” value is “++++ (>20 (10^−6 cm/sec) is highly permeable (++++))” and the “ER MDR1 (Efflux Ratio)” value is “++++ (efflux ratio or effective efflux ratio of <1 has low probability of being an efflux substrate (++++))”. Moreover, the “EER (Effective Efflux Ratio)” value on MDR1 (P-glycoprotein) was “+++ (>1 but <2 has moderate probability of being an efflux substrate (+++))”. Also, in data set [1], the “Papp AB WT” value is given as “++++ (>20 (10^−6 cm/sec) is highly permeable (++++))” and the “ER WT (Efflux Ratio)” value is on record as “++++ (efflux ratio or effective efflux ratio of <1 has low probability of being an efflux substrate (++++))”.

`Cc1cncc(N2CC3(CN(C(=O)N4c5ccc(F)cc5OCC4C)C3)C2)n1` (single isomer, unassigned) [20-2-B]: on MDR1 (P-glycoprotein) (MDR1-MDCK cells), the “Papp AB MDR1” value is listed as “++++ (>20 (10^−6 cm/sec) is highly permeable (++++))” and the “ER MDR1 (Efflux Ratio)” value is recorded as “+++ (>1 but <2 has moderate probability of being an efflux substrate (+++))”. For the same molecule, the “EER (Effective Efflux Ratio)” value on MDR1 (P-glycoprotein) is recorded as “+++ (>1 but <2 has moderate probability of being an efflux substrate (+++))”. Besides, in data set [1], the “Papp AB WT” value is recorded as “++++ (>20 (10^−6 cm/sec) is highly permeable (++++))” and the “ER WT (Efflux Ratio)” value is “++++ (efflux ratio or effective efflux ratio of <1 has low probability of being an efflux substrate (++++))”.

On to `CC1COc2cc(Cl)ccc2N1C(=O)N1CC2(C1)CN(c1cc(C#N)ccn1)C2` (single isomer, unassigned) [20-6-B], for which, at MDR1 (P-glycoprotein) (MDR1-MDCK cells), the “Papp AB MDR1” value is recorded as “++++ (>20 (10^−6 cm/sec) is highly permeable (++++))” and the “ER MDR1 (Efflux Ratio)” value is given as “++++ (efflux ratio or effective efflux ratio of <1 has low probability of being an efflux substrate (++++))”. For the same molecule, the “EER (Effective Efflux Ratio)” value on MDR1 (P-glycoprotein) is recorded as “++++ (efflux ratio or effective efflux ratio of <1 has low probability of being an efflux substrate (++++))”. For the same molecule, in data set [1], the “Papp AB WT” value is “++++ (>20 (10^−6 cm/sec) is highly permeable (++++))” and the “ER WT (Efflux Ratio)” value is listed as “++++ (efflux ratio or effective efflux ratio of <1 has low probability of being an efflux substrate (++++))”.

In the case of `CC1COc2cc(Cl)ccc2N1C(=O)N1CC2(C1)CN(c1ncccn1)C2` (single isomer, unassigned) [1-83-B, (7-chloro-3-methyl-2,3-dihydro-4H-benzo[b][1,4]oxazin-4-yl)(6-(pyrimidin-2-yl)-2,6-diazaspiro[3.3]heptan-2-yl)methanone], the efflux ratio at 1 h, 10 μM at MDR1 (P-glycoprotein) (setting [2]) and at MDR1 (P-glycoprotein) (setting [3]) was 1 to 2 each time. Besides, on MDR1 (P-glycoprotein) (MDR1-MDCK cells), the Papp A→B at 1 h, 10 μM is > 20 ×10⁻⁶ cm/s. Moreover, the “antagonist activity to AVP-induced scratching behaviors” value with Male CD-1 mice (300 mg/kg) and in the data set on Male CD-1 mice (500 mg/kg) was “effective” each time.

Regarding `Cc1nc(N2CC3(CN(C(=O)N4c5ccc(Cl)cc5OCC4C)C3)C2)ncc1F` (single isomer, unassigned) [20-7-B], at MDR1 (P-glycoprotein) (MDR1-MDCK cells), the “Papp AB MDR1” value is recorded as “++++ (>20 (10^−6 cm/sec) is highly permeable (++++))” and the “ER MDR1 (Efflux Ratio)” value was “++++ (efflux ratio or effective efflux ratio of <1 has low probability of being an efflux substrate (++++))”. At MDR1 (P-glycoprotein), the “EER (Effective Efflux Ratio)” value is recorded as “+++ (>1 but <2 has moderate probability of being an efflux substrate (+++))”. Further, in data set [1], the “Papp AB WT” value is “++++ (>20 (10^−6 cm/sec) is highly permeable (++++))” and the “ER WT (Efflux Ratio)” value is “++++ (efflux ratio or effective efflux ratio of <1 has low probability of being an efflux substrate (++++))”.

As for `O=C(N1CC2(C1)CN(c1cnccn1)C2)N1CCc2cc(Cl)ccc21` [8-14], the efflux ratio at 1 h, 10 μM was < 1 at MDR1 (P-glycoprotein) (setting [2]) and 1 to 2 at MDR1 (P-glycoprotein) (setting [3]). For the same molecule, the Papp A→B at 1 h, 10 μM at MDR1 (P-glycoprotein) (MDR1-MDCK cells) was > 20 ×10⁻⁶ cm/s.

`COc1ccnc(N2CC3(CN(C(=O)N4c5ccc(Cl)cc5OCC4C)C3)C2)c1` (stereo not shown) [20-8]: the efflux ratio at 1 h, 10 μM at MDR1 (P-glycoprotein) (setting [2]) and at MDR1 (P-glycoprotein) (setting [3]) was < 1 each time. For the same molecule, the Papp A→B at 1 h, 10 μM on MDR1 (P-glycoprotein) (MDR1-MDCK cells) is > 20 ×10⁻⁶ cm/s.

For the molecule `CC1COc2cc(Cl)ccc2N1C(=O)N1CC2(C1)CN(c1cccnn1)C2` (single isomer, unassigned) [9-1-B], the efflux ratio at 1 h, 10 μM on MDR1 (P-glycoprotein) (setting [2]) is 2 to 3; at MDR1 (P-glycoprotein) (setting [3]), > 3. Further, on MDR1 (P-glycoprotein) (MDR1-MDCK cells), the Papp A→B at 1 h, 10 μM was > 20 ×10⁻⁶ cm/s.

With `O=C(N1CC2(C1)CN(c1ccc(F)cn1)C2)N1CCC(F)(F)c2cc(Cl)ccc21` [17-1, (6-chloro-4,4-difluoro-3,4-dihydroquinolin-1(2H)-yl)(6-(5-fluoropyridin-2-yl)-2,6-diazaspiro[3.3]heptan-2-yl)methanone], the efflux ratio at 1 h, 10 μM was 1 to 2 at MDR1 (P-glycoprotein) (setting [2]) and < 1 at MDR1 (P-glycoprotein) (setting [3]). The Papp A→B at 1 h, 10 μM at MDR1 (P-glycoprotein) (MDR1-MDCK cells) was > 20 ×10⁻⁶ cm/s.
